Assay results as given in patent publication US8022206B2 (OSI Pharmaceuticals, LLC, priority 2008, dated 2011).

Tests used:
RON (human) = RON (human) (Homo sapiens, UniProt Q04912); experiment: RON (human) AlphaScreen kinase assay, Km of ATP; assay type: biochemical; details: AlphaScreen, Km of ATP; read-out: RON biochemical IC50
In short: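 Detection used PT66 AlphaScreen beads added in Tris pH 7.5/NaCl/EDTA/BSA buffer, read after 1 h incubation. Vehicle-only DMSO wells served as controls.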

MET (human) = MET (human) (Homo sapiens, UniProt P08581); experiment: MET (human) AlphaScreen kinase assay, Km of ATP; assay type: biochemical; details: AlphaScreen, Km of ATP; read-out: Met biochemical IC50
In short: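 Human MET at lot-optimised concentration in 50 mM Tris pH 7.4 buffer with 1 mM DTT, compound at 1% DMSO final; enzyme starts the reaction, 60 min at RT.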

RON (human), sequence (Q04912 25-1400): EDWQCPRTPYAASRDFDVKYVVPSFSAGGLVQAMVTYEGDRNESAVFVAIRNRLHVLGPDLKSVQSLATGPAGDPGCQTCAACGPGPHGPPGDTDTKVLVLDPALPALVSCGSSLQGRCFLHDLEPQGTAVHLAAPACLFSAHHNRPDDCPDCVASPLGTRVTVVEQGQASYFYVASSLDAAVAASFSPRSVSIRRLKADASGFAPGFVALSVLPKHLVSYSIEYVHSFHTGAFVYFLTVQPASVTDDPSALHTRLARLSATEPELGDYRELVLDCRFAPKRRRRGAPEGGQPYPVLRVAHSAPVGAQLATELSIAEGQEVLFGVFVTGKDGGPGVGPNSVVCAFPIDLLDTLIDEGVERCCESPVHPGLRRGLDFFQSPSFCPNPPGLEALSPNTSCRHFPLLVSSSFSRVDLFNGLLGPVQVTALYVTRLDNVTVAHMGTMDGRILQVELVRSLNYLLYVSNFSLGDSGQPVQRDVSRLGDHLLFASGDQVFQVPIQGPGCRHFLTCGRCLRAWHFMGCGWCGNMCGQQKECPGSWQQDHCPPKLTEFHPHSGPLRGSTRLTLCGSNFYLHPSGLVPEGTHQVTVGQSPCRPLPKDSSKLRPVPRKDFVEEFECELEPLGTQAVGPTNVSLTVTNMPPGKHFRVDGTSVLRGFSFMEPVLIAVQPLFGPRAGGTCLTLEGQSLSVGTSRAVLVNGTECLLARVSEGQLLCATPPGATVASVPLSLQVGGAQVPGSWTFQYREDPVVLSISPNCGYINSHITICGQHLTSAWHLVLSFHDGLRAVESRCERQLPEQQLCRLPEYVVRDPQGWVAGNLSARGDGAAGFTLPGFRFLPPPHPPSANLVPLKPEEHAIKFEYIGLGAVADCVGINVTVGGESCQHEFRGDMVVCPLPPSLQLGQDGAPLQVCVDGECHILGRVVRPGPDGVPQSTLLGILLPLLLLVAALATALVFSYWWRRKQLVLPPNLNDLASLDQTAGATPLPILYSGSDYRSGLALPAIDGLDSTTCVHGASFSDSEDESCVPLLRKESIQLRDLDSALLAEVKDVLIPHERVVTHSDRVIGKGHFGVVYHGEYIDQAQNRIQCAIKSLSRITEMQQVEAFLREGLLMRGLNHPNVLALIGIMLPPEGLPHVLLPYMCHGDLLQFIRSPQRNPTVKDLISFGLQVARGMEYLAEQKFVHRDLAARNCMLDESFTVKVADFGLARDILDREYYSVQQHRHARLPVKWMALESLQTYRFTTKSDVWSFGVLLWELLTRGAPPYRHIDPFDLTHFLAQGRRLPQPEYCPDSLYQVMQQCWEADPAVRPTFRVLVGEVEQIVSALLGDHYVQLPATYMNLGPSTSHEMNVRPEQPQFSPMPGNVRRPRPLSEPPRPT
MET (human), sequence (P08581 25-1390): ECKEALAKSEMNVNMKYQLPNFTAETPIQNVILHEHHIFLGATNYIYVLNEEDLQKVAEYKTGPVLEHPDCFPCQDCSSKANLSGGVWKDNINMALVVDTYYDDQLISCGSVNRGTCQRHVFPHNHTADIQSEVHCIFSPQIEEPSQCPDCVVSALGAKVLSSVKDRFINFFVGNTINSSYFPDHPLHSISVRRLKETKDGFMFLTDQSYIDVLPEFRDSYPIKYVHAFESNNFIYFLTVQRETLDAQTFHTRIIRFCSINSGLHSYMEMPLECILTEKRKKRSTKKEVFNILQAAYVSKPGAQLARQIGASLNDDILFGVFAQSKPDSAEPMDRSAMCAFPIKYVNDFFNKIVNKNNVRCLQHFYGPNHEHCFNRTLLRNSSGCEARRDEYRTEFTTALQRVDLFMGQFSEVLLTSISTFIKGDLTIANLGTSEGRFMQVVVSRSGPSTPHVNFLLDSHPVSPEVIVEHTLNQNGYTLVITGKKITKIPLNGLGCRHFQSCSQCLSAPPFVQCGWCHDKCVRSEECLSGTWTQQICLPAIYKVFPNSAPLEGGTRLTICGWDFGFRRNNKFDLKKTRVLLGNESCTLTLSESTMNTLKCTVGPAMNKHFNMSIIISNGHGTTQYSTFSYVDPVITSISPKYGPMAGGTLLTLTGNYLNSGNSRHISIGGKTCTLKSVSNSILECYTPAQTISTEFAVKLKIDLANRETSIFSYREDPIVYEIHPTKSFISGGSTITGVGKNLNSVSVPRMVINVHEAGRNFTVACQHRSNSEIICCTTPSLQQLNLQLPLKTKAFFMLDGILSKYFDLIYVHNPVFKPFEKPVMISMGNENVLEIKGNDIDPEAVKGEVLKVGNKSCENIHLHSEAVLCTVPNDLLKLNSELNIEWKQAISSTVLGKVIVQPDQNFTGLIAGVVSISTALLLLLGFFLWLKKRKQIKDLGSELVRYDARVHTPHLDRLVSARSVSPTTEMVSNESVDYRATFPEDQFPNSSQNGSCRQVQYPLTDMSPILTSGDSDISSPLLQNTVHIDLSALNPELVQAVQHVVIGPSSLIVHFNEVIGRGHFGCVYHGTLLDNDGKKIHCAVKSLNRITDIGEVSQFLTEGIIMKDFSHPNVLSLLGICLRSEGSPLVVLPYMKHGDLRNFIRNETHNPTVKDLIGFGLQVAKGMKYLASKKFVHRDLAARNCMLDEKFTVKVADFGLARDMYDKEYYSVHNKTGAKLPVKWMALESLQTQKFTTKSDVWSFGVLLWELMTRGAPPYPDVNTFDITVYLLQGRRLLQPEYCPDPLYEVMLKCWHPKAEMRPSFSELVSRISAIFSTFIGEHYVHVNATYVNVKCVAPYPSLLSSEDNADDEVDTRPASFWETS

Row | Compound | IC50 (RON (human)) | IC50 (MET (human))
1 | C[C@@H](Oc1c(N)ncc2c(-c3cc(C(N)=O)cs3)coc12)c1c(Cl)ccc(F)c1Cl [Example 326, 5-{6-Amino-7-[(R)-1-(2,6-dichloro-3-fluorophenyl)ethoxy]furo[3,2-c]pyridin-3-yl}thiophene-3-carboxamide] | 5000 to 20000 nM | 500 to 5000 nM
2 | Cc1csc(-c2coc3c(O[C@H](C)c4c(Cl)ccc(F)c4Cl)c(N)ncc23)c1 [Example 115, 7-[(R)-1-(2,6-Dichloro-3-fluorophenyl)ethoxy]-3-(4-methylthiophen-2-yl)furo[3,2-c]pyridin-6-ylamine] | 500 to 5000 nM | 500 to 5000 nM
3 | CC(Oc1c(N)ncc2c(-c3cnn(C4CCNCC4)c3)coc12)c1cc(F)cc(-c2cn[nH]c2)c1 (centres unmarked) [Example 451, 7-{1-[3-Fluoro-5-(1H-pyrazol-4-yl)phenyl]ethoxy}-3-(1-piperidin-4-yl-1H-pyrazol-4-yl)furo[3,2-c]pyridin-6-ylamine] | 500 to 5000 nM | < 500 nM
4 | C[C@@H](Oc1c(N)ncc2c(C3=CCCN(C(N)=O)C3)coc12)c1c(Cl)ccc(F)c1Cl [Example 143, 5-{6-Amino-7-[(R)-1-(2,6-dichloro-3-fluorophenyl)ethoxy]furo[3,2-c]pyridin-3-yl}-3,6-dihydro-2H-pyridine-1-carboxamide] | 500 to 5000 nM | < 500 nM
5 | C[C@@H](Oc1c(N)ncc2c(-c3cnn(C4CCNCC4)c3)coc12)c1ccccc1Cl [Example 335, 7-[(R)-1-(2-Chlorophenyl)ethoxy]-3-(1-piperidin-4-yl-1H-pyrazol-4-yl)-furo[3,2-c]pyridin-6-ylamine] | 500 to 5000 nM | < 500 nM
6 | CC(Oc1c(N)ncc2c(-c3cnn(C4CCNCC4)c3)coc12)c1ccc(Cl)cc1 (centres unmarked) [Example 377, 7-[1-(4-Chlorophenyl)ethoxy]-3-(1-piperidin-4-yl-1H-pyrazol-4-yl)furo[3,2-c]pyridin-6-ylamine] | 500 to 5000 nM | 500 to 5000 nM
7 | C[C@@H](Oc1c(N)ncc2c(C3=CCN(C)CC3)coc12)c1c(Cl)ccc(F)c1Cl [Example 37, 7-[(R)-1-(2,6-Dichloro-3-fluorophenyl)-ethoxy]-3-(1-methyl-1,2,3,6-tetrahydropyridin-4-yl)-furo[3,2-c]pyridin-6-ylamine] | < 500 nM | < 500 nM
8 | C[C@@H]1CN(C(=O)CN2CC=C(c3coc4c(O[C@H](C)c5c(Cl)ccc(F)c5Cl)c(N)ncc34)CC2)C[C@H](C)O1 (relative stereo) [Example 204, 2-(4-{6-Amino-7-[(R)-1-(2,6-dichloro-3-fluorophenyl)ethoxy]-furo[3,2-c]pyridin-3-yl}-3,6-dihydro-2H-pyridin-1-yl)-1-((2R*,6S*)-2,6-dimethylmorpholin-4-yl)ethanone] | 500 to 5000 nM | < 500 nM
9 | C[C@@H](Oc1c(N)ncc2c(-c3ccc(C(=O)N4CCN(CC(=O)N(C)C)CC4)cc3)coc12)c1c(Cl)ccc(F)c1Cl [Example 300, 2-[4-(4-{6-Amino-7-[(R)-1-(2,6-dichloro-3-fluorophenyl)ethoxy]furo[3,2-c]pyridin-3-yl}benzoyl)piperazin-1-yl]-N,N-dimethylacetamide] | 500 to 5000 nM | 500 to 5000 nM
10 | COc1ccc(CC(C)Oc2c(N)ncc3c(-c4cnn(C5CCNCC5)c4)coc23)cc1 (centres unmarked) [Example 431, 7-[2-(4-Methoxyphenyl)-1-methylethoxy]-3-(1-piperidin-4-yl-1H-pyrazol-4-yl)furo[3,2-c]pyridin-6-ylamine] | 500 to 5000 nM | 500 to 5000 nM
11 | C[C@@H](Oc1c(N)ncc2c(-c3cccc(NS(=O)(=O)c4ccccc4)c3)coc12)c1c(Cl)ccc(F)c1Cl [Example 243, N-(3-{6-Amino-7-[(R)-1-(2,6-dichloro-3-fluorophenyl)ethoxy]-furo[3,2-c]pyridin-3-yl}phenyl)benzenesulfonamide] | 5000 to 20000 nM | 500 to 5000 nM
12 | C[C@@H](Oc1c(N)ncc2c(-c3csc(C(=O)O)c3)coc12)c1c(Cl)ccc(F)c1Cl [Example 311, 4-{6-Amino-7-[(R)-1-(2,6-dichloro-3-fluorophenyl)ethoxy]furo[3,2-c]pyridin-3-yl}thiophene-2-carboxylic acid] | 500 to 5000 nM | < 500 nM
13 | C[C@@H](Oc1c(N)ncc2c(C3=CCN(C(=O)c4ccc[nH]4)CC3)coc12)c1c(Cl)ccc(F)c1Cl [Example 234, (4-{6-Amino-7-[(R)-1-(2,6-dichloro-3-fluorophenyl)ethoxy]-furo[3,2-c]pyridin-3-yl}-3,6-dihydro-2H-pyridin-1-yl)-(1H-pyrrol-2-yl)-methanone] | 500 to 5000 nM | 500 to 5000 nM

Further lines, results first:

Row | IC50 (RON (human)) | IC50 (MET (human)) | Compound
14 | < 500 nM | < 500 nM | C[C@@H](Oc1c(N)ncc2c(C3=CCN(C(=O)[C@H]4CCNC4)CC3)coc12)c1c(Cl)ccc(F)c1Cl [Example 237, (4-{6-Amino-7-[(R)-1-(2,6-dichloro-3-fluorophenyl)ethoxy]-furo[3,2-c]pyridin-3-yl}-3,6-dihydro-2H-pyridin-1-yl)-(S)-pyrrolidin-3-ylmethanone]
15 | < 500 nM | < 500 nM | C[C@@H](Oc1c(N)ncc2c(C3=CCN(C(=O)C4CCN(C)CC4)CC3)coc12)c1c(Cl)ccc(F)c1Cl [Example 17, (4-{6-Amino-7-[(R)-1-(2,6-dichloro-3-fluorophenyl)-ethoxy]-furo[3,2-c]pyridin-3-yl}-3,6-dihydro-2H-pyridin-1-yl)-(1-methylpiperidin-4-yl)-methanone]
16 | 500 to 5000 nM | 500 to 5000 nM | CC(=O)Nc1ccc(-c2coc3c(O[C@H](C)c4c(Cl)ccc(F)c4Cl)c(N)ncc23)cc1 [Example 58, N-(4-{6-Amino-7-[(R)-1-(2,6-dichloro-3-fluorophenyl)ethoxy]-furo[3,2-c]pyridin-3-yl}phenyl)acetamide]
17 | 500 to 5000 nM | 500 to 5000 nM | C[C@@H](Oc1c(N)ncc2c(-c3ccc(C(=O)N4CCN(CCOCCO)CC4)cc3)coc12)c1c(Cl)ccc(F)c1Cl [Example 301, (4-{6-Amino-7-[(R)-1-(2,6-dichloro-3-fluoro-phenyl)ethoxy]furo[3,2-c]pyridin-3-yl}phenyl)-{4-[2-(2-hydroxyethoxy)ethyl]piperazin-1-yl}methanone]
18 | 500 to 5000 nM | < 500 nM | C[C@@H](Oc1c(N)ncc2c(-c3cccc(NS(C)(=O)=O)c3)coc12)c1c(Cl)ccc(F)c1Cl [Example 79, N-(3-{6-Amino-7-[(R)-1-(2,6-dichloro-3-fluorophenyl)ethoxy]-furo[3,2-c]pyridin-3-yl}phenyl)methanesulfonamide]
19 | 500 to 5000 nM | < 500 nM | CC(Cc1c(Cl)cccc1C(F)(F)F)Oc1c(N)ncc2c(-c3cnn(C4CCNCC4)c3)coc12 (centres unmarked) [Example 440, 7-[2-(2-Chloro-6-trifluoromethylphenyl)-1-methylethoxy]-3-(1-piperidin-4-yl-1H-pyrazol-4-yl)furo[3,2-c]pyridin-6-ylamine]
20 | < 500 nM | < 500 nM | C[C@@H](Oc1c(N)ncc2c(C3=CCN(CC4CCCCC4)CC3)coc12)c1c(Cl)ccc(F)c1Cl [Example 38, 3-(1-Cyclohexylmethyl-1,2,3,6-tetrahydropyridin-4-yl)-7-[(R)-1-(2,6-dichloro-3-fluorophenyl)-ethoxy]-furo[3,2-c]pyridin-6-ylamine]
21 | 500 to 5000 nM | 500 to 5000 nM | Nc1ncc2c(-c3cnn(C4CCNCC4)c3)coc2c1O[C@H]1CCCC[C@H]1c1ccccc1 [Example 409]
22 | < 500 nM | < 500 nM | COc1cccc(CC(C)Oc2c(N)ncc3c(-c4cnn(C5CCNCC5)c4)coc23)c1 (centres unmarked) [Example 437, 7-[2-(3-Methoxyphenyl)-1-methylethoxy]-3-(1-piperidin-4-yl-1H-pyrazol-4-yl)furo[3,2-c]pyridin-6-ylamine]
23 | 500 to 5000 nM | 500 to 5000 nM | C[C@@H](Oc1c(N)ncc2c(C3=CCN(C(=O)N4CCOCC4)CC3)coc12)c1c(Cl)ccc(F)c1Cl [Example 31, (4-{6-Amino-7-[(R)-1-(2,6-dichloro-3-fluorophenyl)-ethoxy]-furo[3,2-c]pyridin-3-yl}-3,6-dihydro-2H-pyridin-1-yl)-morpholin-4-ylmethanone]
24 | 500 to 5000 nM | < 500 nM | CC(Cc1ccc(F)cc1)Oc1c(N)ncc2c(-c3cnn(C4CCNCC4)c3)coc12 (centres unmarked) [Example 425, 7-[2-(4-Fluorophenyl)-1-methylethoxy]-3-(1-piperidin-4-yl-1H-pyrazol-4-yl)furo[3,2-c]pyridin-6-ylamine]
25 | < 500 nM | < 500 nM | C[C@@H](Oc1c(N)ncc2c(C3=CCN(C(=O)N4CCNCC4)CC3)coc12)c1c(Cl)ccc(F)c1Cl [Example 33, (4-{6-Amino-7-[(R)-1-(2,6-dichloro-3-fluorophenyl)-ethoxy]-furo[3,2-c]pyridin-3-yl}-3,6-dihydro-2H-pyridin-1-yl)-piperazin-1-ylmethanone]
26 | < 500 nM | < 500 nM | C[C@@H](Oc1c(N)ncc2c(C3=CCN(C(=O)[C@@H](N)Cc4cnc[nH]4)CC3)coc12)c1c(Cl)ccc(F)c1Cl [Example 263, (2S)-2-Amino-1-[4-{6-amino-7-[(1R)-1-(2,6-dichloro-3-fluoro-phenyl)ethoxy]furo[3,2-c]pyridin-3-yl}-3,6-dihydropyridin-1(2H)-yl]-3-(1H-imidazol-5-yl)propan-1-one]
27 | < 500 nM | < 500 nM | C[C@@H](Oc1c(N)ncc2c(-c3ccc(CN(C)C)s3)coc12)c1c(Cl)ccc(F)c1Cl [Example 214, 7-[(R)-1-(2,6-Dichloro-3-fluorophenyl)ethoxy]-3-(5-dimethyl-aminomethylthiophen-2-yl)-furo[3,2-c]pyridin-6-ylamine]
28 | < 500 nM | < 500 nM | C[C@@H](Oc1c(N)ncc2c(-c3ccc(CN4CCNCC4)s3)coc12)c1c(Cl)ccc(F)c1Cl [Example 217, 7-[(R)-1-(2,6-Dichloro-3-fluorophenyl)ethoxy]-3-(5-piperazin-1-ylmethylthiophen-2-yl)-furo[3,2-c]pyridin-6-ylamine]
